Source: patent US7842671B1, “Peptidomimetic inhibitors of STAT activity and uses thereof” (University of South Florida, priority 2003, dated 2010)

Key:
NIH3T3 = format: cell-based, mouse; conditions: 1 mM, normal NIH3T3 cells
Method: Cell proliferation, soft-agar growth and Apo-BrdU labeling studies. Proliferating fibroblasts and human tumor cells were counted by phase-contrast microscopy for viable cells (using tyrpan blue exclusion). Colony formation assays in six-well dishes and quantification of colonies by iodonitrotetrazolium violet have been previously described (Turkson, J. et al. (1999)). Treatment of cells with inhibitors was initiated 1 day after seeding cells by adding 75 μl of medium with or without inhibitor, and repeated every two to three days. Apoptosis was measured by Apo-BrdU labeling and following the supplier's (PharMingen; San Diego, Calif.) instructions.
Stat3 has an essential role in cell proliferation, and constitutively-active Stat3 is required for growth of transformed and tumor cells that harbor aberrant Stat3 signaling. Studies were performed to determine the effects of the peptidomimetic-mediated inhibition of Stat3 on cell proliferation using trypan blue exclusion for viable cell counts.

[1] = system: Stat1:Stat1 and Stat3:Stat3 dimers; test: Dissociation-reassociation analysis of pooled Sf-9 lysates by EMSA; format: biochemical; conditions: 30 min pre-treatment, 30-300 μM PY*LKTK or 3-1000 μM ISS 610, hSIE probe
Method: Cytosolic extract preparation and luciferase assays. Cytosolic extract preparation from fibroblasts and luciferase assays were previously described (Turkson, J. et al. (1998); Turkson, J. et al. (1999)). Briefly, after two washes with PBS and equilibration for 5 min with 0.5 ml PBS-0.5 mM EDTA, cells were scraped off the dishes and the cell pellet was obtained by centrifugation (4,500×g, 2 min, 4° C.). Cells were resuspended in 0.4 ml of low-salt HEPES buffer (10 mM HEPES (pH 7.8), 10 mM KCl, 0.1 mM EGTA, 0.1 mM EDTA, 1 mM phenylmethylsulfonyl fluoride, and 1 mM dithiothreitol) for 15 min, lysed by the addition of 20 μl of 10% Nonidet P-40 (NP-40), and centrifuged (10,000×g, 30 s, 4° C.) to obtain the cytosolic supernatant, which was used for luciferase assays (Promega) measured with a luminometer. Cytosolic lysates containing activated Stat3 or Stat1 that were used for dissociation-reassociation analysis were prepared from baculovirus-infected Sf-9 insect cells as previously described (Turkson, J. et al. (2001); Zhang, Y. et al. (2000)). Briefly, cultured dishes of Sf-9 cells were washed twice with ice-cold 1×PBS and then PBS containing 1 mM sodium orthovanadate.

In the case of `CC(C)CC(NC(=O)C(Cc1ccc(OP(=O)(O)O)cc1)NC(=O)c1ccc(C#N)cc1)C(=O)O` (centres unmarked) [ISS 610], the cell proliferation (NIH3T3) is reported as “no effect on cell proliferation” and the “effect on STAT dimers in mixed Stat1:Stat1 and Stat3:Stat3 lysates” value [1] is reported as “appearance of an additional intermediate band representing Stat1:Stat3 heterodimers”.
